This test concerns the target T1, PDE5A1 (Homo sapiens, UniProt O76074).
T1 construct: from tissue; host or cells: human platelets from fresh donor blood (10,000 x g supernatant of sonicated lysate)
Kind of test: Inhibition of type 5 phosphodiesterase (PDE5) activity, modified SPA test with human platelet lysate. The following applies: 0.5 μM cGMP, read-out: PDE5A1 inhibitory values [measured as −log IC50 (mol/l)] (converted). The class given is biochemical. As to the method:
Method for Measuring Inhibition of the Type 5 Phosphodiesterase (PDE5) Activity:
As a source for human PDE5, platelets are used. For that purpose, 150 ml fresh blood from human donors anticoagulated with citrate [final concentration 0.3% (w/v)] is centrifuged at 200 g for 10 min to obtain the so-called platelet-rich-plasma (PRP) as a supernatant. 1/10 volume of ACD solution (85 mM Na3-citrate, 111 mM D-glucose, 71 mM citric acid, pH 4.4) is added to 9/10 volume of PRP. After centrifugation (1,400 g, 10 min) the cell pellet is resuspended in 3 ml homogenization buffer (NaCl 140 mM, KCl 3.8 mM, EGTA (ethylene glycol tetraacetic acid) 1 mM, MgCl2 1 mM, Tris-HCl 20 mM, beta-mercaptoethanol 1 mM, pH 8.2) plus protease-inhibitor mix giving rise to the final concentrations of 0.5 mM Pefablock (Roche), 10 μM Leupeptin, 5 μM Trypsininhibitor, 2 mM Benzamidin and 10 μM Pepstatin A. The suspension is sonified and thereafter centrifuged for 15 min at 10,000 g. The resulting supernatant (platelet lysate) is used for enzymatic testings.
PDE5A1 activity is inhibited by the compounds of the present subject matter in a modified SPA (scintillation proximity assay) test, supplied by Amersham Biosciences (see procedural instructions “phosphodiesterase [3H]cAMP SPA enzyme assay, code TRKQ 7090”), carried out in 96-well microtitre plates (MTP's). The test volume is 100 μl and contains 20 mM Tris buffer (pH 7.4), 0.1 mg of BSA (bovine serum albumin)/ml, 5 mM Mg^2+, 1 μM motapizone, 10 nM PDE2 inhibitor 2-(3,4-dimethoxybenzyl)-7-[(1R,2R)-2-hydroxy-1-(2-phenylethyl)propyl]-5-methylimidazo[5,1-f][1,2,4]triazin-4(3H)-one, 0.5 μM cGMP (cyclic guanosine monophosphate) (including about 50,000 cpm of [3H]cGMP as a tracer), 1 μl of the respective compound dilution in dimethylsulfoxide (DMSO) and sufficient PDE5-containing platelet lysat (10,000×g supernatant, see above) to ensure that 10-20 wt % of the cGMP is converted under the said experimental conditions. […] After a preincubation of 5 min at 37° C., the reaction is started by adding the substrate (cGMP) and the assay is incubated for a further 15 min; after that, it is stopped by adding SPA beads (50 μl). In accordance with the manufacturer's instructions, the SPA beads had previously been resuspended in water, but are then diluted 1:3 (v/v) in water; the diluted solution also contains 3 mM […] (IBMX) to ensure a complete PDE activity stop. After the beads have been sedimented (>30 min), the MTP's are analyzed in commercially available luminescence detection devices. The corresponding IC50 values of the compounds for the inhibition of PDE activity are determined from the concentration-effect curves by means of non-linear regression.
In the case of `COCC(=O)N1CC[C@@H](NC(=O)c2c(C)[nH]c3c(-c4cc(F)ccc4OCC4CC4)ncnc23)[C@H](O)C1` (relative stereo) [Example E51, 4-[2-(Cyclopropylmethoxy)-5-fluorophenyl]-N-[(3R*,4R*)-3-hydroxy-1-(methoxyacetyl)piperidin-4-yl]-6-methyl-5H-pyrrolo[3,2-d]pyrimidine-7-carboxamide], the IC50 was 1 to 10 nM.
The same measure for `COc1ccc(-c2ncnc3c(C(=O)N[C@@H]4CN(C(C)=O)C[C@H]4O)c(C)[nH]c23)c(OCC2CC2)c1` (relative stereo) [Example E63, N-[(3R*,4R*)-1-acetyl-4-hydroxypyrrolidin-3-yl]-4-[2-(cyclopropylmethoxy)-4-methoxyphenyl]-6-methyl-5H-pyrrolo[3,2-d]pyrimidine-7-carboxamide]: less than 1 nM.
Then `CCC(=O)N1C[C@@H](O)[C@H](NC(=O)c2c(C)[nH]c3c(-c4ccc(OC)cc4OCC4CC4)ncnc23)C1` (relative stereo) [Example E64, 4-[2-(Cyclopropylmethoxy)-4-methoxyphenyl]-N-[(3R*,4R*)-4-hydroxy-1-propionylpyrrolidin-3-yl]-6-methyl-5H-pyrrolo[3,2-d]pyrimidine-7-carboxamide], with less than 1 nM; and `COCC(=O)N1C[C@@H](O)[C@H](NC(=O)c2c(C)[nH]c3c(-c4ccc(OC)cc4OCC4CC4)ncnc23)C1` (relative stereo) [Example E65, 4-[2-(Cyclopropylmethoxy)-4-methoxyphenyl]-N-[(3R*,4R*)-4-hydroxy-1-(methoxyacetyl)pyrrolidin-3-yl]-6-methyl-5H-pyrrolo[3,2-d]pyrimidine-7-carboxamide], with less than 1 nM; and `COc1ccc(OCC2CC2)c(-c2ncnc3c(C(=O)N[C@@H]4CCN(C(C)=O)C[C@H]4O)c(C)[nH]c23)c1` (relative stereo) [Example E78, N-[(3R*,4R*)-1-acetyl-3-hydroxypiperidin-4-yl]-4-[2-(cyclopropylmethoxy)-5-methoxyphenyl]-6-methyl-5H-pyrrolo[3,2-d]pyrimidine-7-carboxamide], with less than 1 nM.
For the molecule `CCC(=O)N1CC[C@@H](NC(=O)c2c(C)[nH]c3c(-c4cc(OC)ccc4OCC4CC4)ncnc23)[C@H](O)C1` (relative stereo) [Example E79, 4-[2-(Cyclopropylmethoxy)-5-methoxyphenyl]-N-[(3R*,4R*)-3-hydroxy-1-propanoylpiperidin-4-yl]-6-methyl-5H-pyrrolo[3,2-d]pyrimidine-7-carboxamide], the IC50 was less than 1 nM.
Turning to `COCC(=O)N1CC[C@@H](NC(=O)c2c(C)[nH]c3c(-c4cc(OC)ccc4OCC4CC4)ncnc23)[C@H](O)C1` (relative stereo) [Example E80, 4-[2-(Cyclopropylmethoxy)-5-methoxyphenyl]-N-[(3R*,4R*)-3-hydroxy-1-(methoxyacetyl)piperidin-4-yl]-6-methyl-5H-pyrrolo[3,2-d]pyrimidine-7-carboxamide], the IC50 is 1 to 10 nM.
Then `COc1cc(-c2ncnc3c(C(=O)N[C@@H]4CCN(C(C)=O)C[C@H]4O)c(C)[nH]c23)c(OCC2CC2)cc1F` (relative stereo) [Example E113, N-[(3R*,4R*)-1-Acetyl-3-hydroxypiperidin-4-yl]-4-[2-(cyclopropylmethoxy)-4-fluoro-5-methoxyphenyl]-6-methyl-5H-pyrrolo[3,2-d]pyrimidine-7-carboxamide], with less than 1 nM; and `CCC(=O)N1CC[C@@H](NC(=O)c2c(C)[nH]c3c(-c4cc(OC)c(F)cc4OCC4CC4)ncnc23)[C@H](O)C1` (relative stereo) [Example E114, 4-[2-(Cyclopropylmethoxy)-4-fluoro-5-methoxyphenyl]-N-[(3R*,4R*)-3-hydroxy-1-propionylpiperidin-4-yl]-6-methyl-5H-pyrrolo[3,2-d]pyrimidine-7-carboxamide], with less than 1 nM.
The same measure for `COCC(=O)N1CC[C@@H](NC(=O)c2c(C)[nH]c3c(-c4cc(OC)c(F)cc4OCC4CC4)ncnc23)[C@H](O)C1` (relative stereo) [Example E115, 4-[2-(cyclopropylmethoxy)-4-fluoro-5-methoxyphenyl]-N-[(3R*,4R*)-3-hydroxy-1-(methoxyacetyl)piperidin-4-yl]-6-methyl-5H-pyrrolo[3,2-d]pyrimidine-7-carboxamide]: less than 1 nM; for `COc1cc(-c2ncnc3c(C(=O)N[C@H]4CN(C(C)=O)CC[C@@H]4O)c(C)[nH]c23)c(OCC2CC2)cc1F` (relative stereo) [Example E116, N-[(3S*,4S*)-1-Acetyl-4-hydroxypiperidin-3-yl]-4-[2-(cyclopropylmethoxy)-4-fluoro-5-methoxyphenyl]-6-methyl-5H-pyrrolo[3,2-d]pyrimidine-7-carboxamide]: less than 1 nM; for `CCC(=O)N1CC[C@H](O)[C@@H](NC(=O)c2c(C)[nH]c3c(-c4cc(OC)c(F)cc4OCC4CC4)ncnc23)C1` (relative stereo) [Example E117, 4-[2-(Cyclopropylmethoxy)-4-fluoro-5-methoxyphenyl]-N-[(3S*,4S*)-4-hydroxy-1-propionylpiperidin-3-yl]-6-methyl-5H-pyrrolo[3,2-d]pyrimidine-7-carboxamide]: less than 1 nM.
Take `COCC(=O)N1CC[C@H](O)[C@@H](NC(=O)c2c(C)[nH]c3c(-c4cc(OC)c(F)cc4OCC4CC4)ncnc23)C1` (relative stereo) [Example E118, 4-[2-(cyclopropylmethoxy)-4-fluoro-5-methoxyphenyl]-N-[(3S*,4S*)-4-hydroxy-1-(methoxyacetyl)piperidin-3-yl]-6-methyl-5H-pyrrolo[3,2-d]pyrimidine-7-carboxamide]: the IC50 was less than 1 nM.
As for `CC(=O)N1CC[C@@H](NC(=O)c2c(C)[nH]c3c(-c4cc(C)c(F)cc4OCC4CC4)ncnc23)[C@H](O)C1` (relative stereo) [Example E128, N-[(3R*,4R*)-1-Acetyl-3-hydroxypiperidin-4-yl]-4-[2-(cyclopropylmethoxy)-4-fluoro-5-methylphenyl]-6-methyl-5H-pyrrolo[3,2-d]pyrimidine-7-carboxamide], the IC50 was less than 1 nM.
As for `CCC(=O)N1CC[C@@H](NC(=O)c2c(C)[nH]c3c(-c4cc(C)c(F)cc4OCC4CC4)ncnc23)[C@H](O)C1` (relative stereo) [Example E129, 4-[2-(cyclopropylmethoxy)-4-fluoro-5-methylphenyl]-N-[(3R*,4R*)-3-hydroxy-1-propanoylpiperidin-4-yl]-6-methyl-5H-pyrrolo[3,2-d]pyrimidine-7-carboxamide], the IC50 is less than 1 nM.
With `COCC(=O)N1CC[C@@H](NC(=O)c2c(C)[nH]c3c(-c4cc(C)c(F)cc4OCC4CC4)ncnc23)[C@H](O)C1` (relative stereo) [Example E130, 4-[2-(Cyclopropylmethoxy)-4-fluoro-5-methylphenyl]-N-[(3R*,4R*)-3-hydroxy-1-(methoxyacetyl)piperidin-4-yl]-6-methyl-5H-pyrrolo[3,2-d]pyrimidine-7-carboxamide], the IC50 was less than 1 nM.
The same measure for `COc1cc(OCC2CC2)c(-c2ncnc3c(C(=O)N[C@@H]4CCN(C(C)=O)C[C@H]4O)c(C)[nH]c23)cc1F` (relative stereo) [Example E142, N-[(3R*,4R*)-1-Acetyl-3-hydroxypiperidin-4-yl]-4-[2-(cyclopropylmethoxy)-5-fluoro-4-methoxyphenyl]-6-methyl-5H-pyrrolo[3,2-d]pyrimidine-7-carboxamide]: less than 1 nM; for `CCC(=O)N1CC[C@@H](NC(=O)c2c(C)[nH]c3c(-c4cc(F)c(OC)cc4OCC4CC4)ncnc23)[C@H](O)C1` (relative stereo) [Example E143, 4-[2-(Cyclopropylmethoxy)-5-fluoro-4-methoxyphenyl]-N-[(3R*,4R*)-3-hydroxy-1-propanoylpiperidin-4-yl]-6-methyl-5H-pyrrolo[3,2-d]pyrimidine-7-carboxamide]: less than 1 nM.
On to `COCC(=O)N1CC[C@@H](NC(=O)c2c(C)[nH]c3c(-c4cc(F)c(OC)cc4OCC4CC4)ncnc23)[C@H](O)C1` (relative stereo) [Example E144, 4-[2-(Cyclopropylmethoxy)-5-fluoro-4-methoxyphenyl]-N-[(3R*,4R*)-3-hydroxy-1-(methoxyacetyl)piperidin-4-yl]-6-methyl-5H-pyrrolo[3,2-d]pyrimidine-7-carboxamide], for which the IC50 was less than 1 nM.

Values taken from patent US9376442B2, “Methylpyrrolopyrimidinecarboxamides” (Takeda GmbH, priority 2009, dated 2016).
